Values after ≈ are worked out from the molar mass of the structure shown.
What was measured:
[1] = Surviving fraction was evaluated at concentration 4 uM in T2 phage; type: functional
Ehrlich [2] = assay: Compound was tested for the inhibition of RNA synthesis in Ehrlich cells by incubation in the dark relative to furoquinolinone; type: functional, Mus musculus
Ehrlich [3] = assay: Compound was tested for the inhibition of DNA synthesis in Ehrlich cells by incubation in the dark.; type: functional; settings: Mus musculus, read-out: ID50 (the source's name)
Ehrlich [4] = assay: Compound was tested for the inhibition of RNA synthesis in Ehrlich cells by incubation in the dark.; type: functional; settings: Mus musculus, read-out: ID50 (the source's name)
Ehrlich [5] = assay: Compound was tested for the inhibition of RNA synthesis in Ehrlich cells by UV -A Irradiation; type: functional, Mus musculus
Ehrlich [6] = assay: Compound was tested for the inhibition of DNA synthesis in Ehrlich cells by incubation in the dark relative to furoquinolinone; type: functional, Mus musculus
Ehrlich [7] = assay: Compound was tested for the inhibition of RNA synthesis in Ehrlich cells by UV -A Irradiation relative to furoquinolinone; type: functional, Mus musculus
Ehrlich [8] = assay: Compound was tested for the inhibition of DNA synthesis in Ehrlich cells by UV -A Irradiation relative to furoquinolinone; type: functional, Mus musculus
Ehrlich [9] = assay: Compound was tested for the inhibition of DNA synthesis in Ehrlich cells by UV -A Irradiation; type: functional, Mus musculus
[10] = Partition Coefficient in n-octanol / water medium; type: physicochemical
[11] = Solubility of compound in water; type: physicochemical; settings: for solubility: water, read-out: S
[12] = Surviving fraction was evaluated at concentration 2 uM in T2 phage; type: functional
Bos taurus = organism: Bos taurus; assay: Association constant of binding of compound with calf thymus DNA was determined by using equilibrium dialysis.; settings: cattle

SMILES | Surviving fraction [1] | Relative activity (Ehrlich [2]) | IC50 (Ehrlich [3]) [µM] | IC50 (Ehrlich [4]) [µM] | Du (Ehrlich [5]) | Relative activity (Ehrlich [6]) | Relative activity (Ehrlich [7]) | Relative activity (Ehrlich [8]) | Du (Ehrlich [9]) | Partition coefficient [10] | solubility [11] [µg/mL] | Surviving fraction [12] | K (Bos taurus) [M⁻¹] | S ([11]; buffer) [mg/mL]
Cc1oc2c(C)cc3c(C)cc(=O)[nH]c3c2c1C | 0.7 | 0.256 | 25.2 | 5.27 | 1.048 | 0.0926 | 582 | 102.6 | 1.19 |  |  |  |  | 
Cc1cc2c(o1)c(C)cc1c(C)cc(=O)oc12 |  |  |  |  | 0.0303 |  | 16.83 | 4.14 | 0.0481 | 1897 | 1460 (≈ 6.4 mM) | 0.6 | 10100 | 
Cc1cc2c(o1)c(C)cc1c(C)cc(=O)n(C)c12 |  | 1 | 2.33 | 1.35 | 0.803 | 1 | 461 | 77.6 | 0.9 | 163.5 | 4700 (≈ 19.5 mM) | 0.69 | 11700 | 
COc1c2occc2cc2ccc(=O)oc12 [METHOXSALEN] |  |  |  |  | 0.0018 |  | 1 | 1 | 0.0116 |  |  | 0.8 | 736 | 23
